Data from US20060024844A1, “Method for the idenification of ligands” (priority 2002, published 2006).
Like-named read-outs stand apart in the source and are kept apart here. Blank lines part the entries; values can stand above or below the molecule they belong to.

Columns and labels:
Type in all cases: binding
ER-α [1] = molecular target: T1, ER-α (Homo sapiens, UniProt P03372); experiment: Microplate thermal shift assay (Thermofluor) of ER-α against a panel of steroid ligands
T1 sequence (P03372 1-595): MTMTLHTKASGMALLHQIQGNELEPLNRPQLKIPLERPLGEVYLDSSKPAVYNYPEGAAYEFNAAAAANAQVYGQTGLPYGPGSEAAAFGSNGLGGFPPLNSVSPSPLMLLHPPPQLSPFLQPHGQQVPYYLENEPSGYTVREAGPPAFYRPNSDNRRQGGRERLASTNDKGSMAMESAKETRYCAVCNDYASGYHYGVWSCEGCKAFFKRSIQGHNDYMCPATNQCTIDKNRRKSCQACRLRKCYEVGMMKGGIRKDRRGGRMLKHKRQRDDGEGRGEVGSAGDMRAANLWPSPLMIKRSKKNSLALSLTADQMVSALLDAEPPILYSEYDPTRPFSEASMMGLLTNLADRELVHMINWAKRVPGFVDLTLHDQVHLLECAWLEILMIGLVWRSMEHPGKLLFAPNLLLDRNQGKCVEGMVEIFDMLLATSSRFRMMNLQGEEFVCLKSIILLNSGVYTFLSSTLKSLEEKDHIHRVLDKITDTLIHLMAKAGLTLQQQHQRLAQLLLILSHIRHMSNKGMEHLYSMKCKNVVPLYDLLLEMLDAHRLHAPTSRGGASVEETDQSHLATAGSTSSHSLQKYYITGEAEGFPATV
Procedure: The concentration of ER-α in all of the experiments was 8 μM and the ligand concentration was 20 μM.
A 2 μL ligand solution at 2 times the final concentration was dispensed with a micropipette into a 384 well black wall Greiner plate. Then, 2 μL of the protein dye solution was dispensed on top of the ligand solution in the 384 well plate. The plates were spun to ensure mixing of the protein-dye and ligand solutions followed by layering of […], of silicone oil to prevent evaporation during heating of the samples.

ER-β = ER-β (Homo sapiens, UniProt Q92731); experiment: Microplate thermal shift assay (Thermofluor) of ER-β with ligands and co-regulators; details: for Change in Tm stabilization from the receptor-ligand ΔTm in the presence of SRC-1 NR2 / Change in Tm stabilization from the receptor-ligand ΔTm in the presence of SRC-3 NR2 / Change in Tm stabilization from the receptor-ligand ΔTm in the presence of SRC-3 / Change in Tm stabilization from the receptor-ligand ΔTm in the presence of NCoR1 / Observed ΔTm stabilization, ligand alone / ΔTm at 11 µM: ER-β 8 μM, ligand 20 μM; for Change in Tm stabilization from the receptor-ligand ΔTm in the presence of SRC-1 NR2: co-activator peptide SRC1—NR2; for Change in Tm stabilization from the receptor-ligand ΔTm in the presence of SRC-3 NR2: co-activator peptide SRC3—NR2; for Change in Tm stabilization from the receptor-ligand ΔTm in the presence of SRC-3 / ΔTm at 11 µM: co-activator protein SRC-3 11 μM; for Change in Tm stabilization from the receptor-ligand ΔTm in the presence of NCoR1: co-repressor peptide NCoR-1; for Observed ΔTm stabilization, ligand alone: no co-regulator, average of four experiments; for ΔTm at 11 µM: read-out: Change in Tm stabilization from the receptor-ligand ΔTm in the presence of SRC-3
Procedure: (§1) A 2 μL ligand solution at 2 times the final concentration was dispensed with a micropipette into a 384 well black wall Greiner plate. Then, 2 μL of the protein dye solution was dispensed on top of the ligand solution in the 384 well plate. The plates were spun to ensure mixing of the protein-dye and ligand solutions followed by layering of 1 μL of silicone oil to prevent evaporation during heating of the samples.

ER-α [2] = molecular target: T1, ER-α; experiment: Microplate thermal shift assay (Thermofluor) of ER-α with ligands and co-regulators
Procedure: as §1

[3] = ER-α 8 μM, ligand 20 μM, average of four experiments, in °C (unit assumed)
[4] = ER-α 8 μM, ligand 20 μM, average of four experiments

ER-β, sequence (Q92731 whole entry, species assumed): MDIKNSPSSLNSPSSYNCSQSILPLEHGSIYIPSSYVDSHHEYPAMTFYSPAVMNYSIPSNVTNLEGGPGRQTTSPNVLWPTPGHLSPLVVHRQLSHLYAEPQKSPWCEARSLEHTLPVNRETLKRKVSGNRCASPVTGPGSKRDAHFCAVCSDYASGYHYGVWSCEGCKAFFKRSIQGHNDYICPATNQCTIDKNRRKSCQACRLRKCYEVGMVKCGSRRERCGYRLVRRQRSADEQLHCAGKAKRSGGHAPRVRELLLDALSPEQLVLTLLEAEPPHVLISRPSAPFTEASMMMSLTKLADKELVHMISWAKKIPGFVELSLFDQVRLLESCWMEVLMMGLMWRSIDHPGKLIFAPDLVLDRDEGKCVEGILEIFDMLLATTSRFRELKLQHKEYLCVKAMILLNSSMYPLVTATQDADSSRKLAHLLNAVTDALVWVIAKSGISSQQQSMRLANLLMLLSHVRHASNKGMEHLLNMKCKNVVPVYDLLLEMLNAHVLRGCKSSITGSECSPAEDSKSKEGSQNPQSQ

Molecule: 4-hydroxytamoxifen [4-OH-tamoxifen]
Ligand function for ER-α (agonist or antagonist) (ER-α [1]): antagonist | ΔTm (ER-α [1]; in °C (unit assumed)): 19.99

Molecule: C[C@@]12CCC[C@H]1[C@@H]1CCC3=CCCC[C@]3(C)[C@H]1CC2 [4-androstene]
ΔTm (ER-α [1]; [4]): −0.23

Molecule: C[C@]12CCC(=O)C=C1CC[C@@H]1[C@@H]2C(=O)C[C@@]2(C)[C@H]1CC[C@]2(O)C(=O)CO [cortisone]
ΔTm (ER-α [1]; [3]): 0.01

Molecule: CC(=O)[C@H]1CC[C@H]2[C@@H]3CCC4=CC(=O)CC[C@]4(C)[C@H]3CC[C@]12C [progesterone]
ΔTm (ER-α [1]; [4]): −0.19

The next lines start with results.

Change in Tm stabilization from the receptor-ligand ΔTm in the presence of SRC-1 NR2 (ER-β): 2.6 | Change in Tm stabilization from the receptor-ligand ΔTm in the presence of SRC-3 NR2 (ER-β): 2.6 | Change in Tm stabilization from the receptor-ligand ΔTm in the presence of SRC-3 (ER-β): 1.6 | Change in Tm stabilization from the receptor-ligand ΔTm in the presence of NCoR1 (ER-β): −0.1 | Observed ΔTm stabilization, ligand alone (ER-β): 15.0
Molecule: 17-α-ethyleneestradiol [17-α-ethylen-E2]

Change in Tm stabilization from the receptor-ligand ΔTm in the presence of NCoR1 (ER-α [2]; ER-α 8 μM, ligand 20 μM, co-repressor peptide NCoR-1): −0.3 | Observed ΔTm stabilization, ligand alone (ER-α [2]; ER-α 8 μM, ligand 20 μM, no co-regulator, average of four experiments): 1.8 | ΔTm (ER-α [1]; [3]): 5.98 | Ligand function for ER-α (agonist or antagonist) (ER-α [1]; interpretation if ligands had been screened against co-regulators as in Example 1): agonists | Change in Tm stabilization from the receptor-ligand ΔTm in the presence of SRC-1 NR2 (ER-β): 4.4 | Change in Tm stabilization from the receptor-ligand ΔTm in the presence of SRC-3 NR2 (ER-β): 4.4 | Change in Tm stabilization from the receptor-ligand ΔTm in the presence of SRC-3 (ER-β): 2.2 | Change in Tm stabilization from the receptor-ligand ΔTm in the presence of NCoR1 (ER-β): −0.7 | Observed ΔTm stabilization, ligand alone (ER-β): 1.5
Molecule: COc1cc2c(cc1O)CC[C@@H]1[C@@H]2CC[C@]2(C)[C@@H](O)CC[C@@H]12 [2-methoxy-E2, 2-methoxyestradiol]

ΔTm at 11 µM (ER-β): 1.1 °C
Molecule: C[C@]12CC[C@@H]3c4ccc(O)cc4CC[C@H]3[C@@H]1CC[C@@H]2O [Estradiol, β-estradiol]

ΔTm at 11 µM (ER-α [2]; ER-α 8 μM, ligand 20 μM, co-activator protein SRC-3 11 μM, read-out: Change in Tm stabilization from the receptor-ligand ΔTm in the presence of SRC-3): 0 °C | Additional stabilization / ability to recruit co-activators in the presence of co-activator protein/peptide (ER-α [2]; ER-α, result in words): no ability to recruit co-activators | ΔTm at 11 µM (ER-β): 0.6 °C | Observed ΔTm stabilization, ligand alone (ER-β): 13.6 | Additional stabilization / ability to recruit co-activators in the presence of co-activator protein/peptide (ER-β; ER-β, result in words): no ability to recruit co-activators
Molecule: C[C@]12CC[C@@H]3c4ccc(O)cc4C[C@@H](CCCCCCCCC[S+]([O-])CCCC(F)(F)C(F)(F)F)[C@H]3[C@@H]1CC[C@@H]2O (stereo partly shown) [ICI-182780]

ΔTm (ER-α [1]; [4]): −0.27
Molecule: C[C@]12C[C@H](O)[C@H]3[C@@H](CCC4=CC(=O)CC[C@@]43C)[C@@H]1CC[C@@H]2C(=O)CO [corticosterone]

Preferential recruitment of co-activator, ER-α vs. ER-β (ER-α [2]; in the presence of estrogen-like ligands, result in words): preferentially recruited
Molecule: SRC-3: co-activator protein SRC-3
Observed ΔTm stabilization by co-regulator alone (no ligand) (ER-α [2]; ER-α 8 μM, no ligand, SRC-3 11 μM, peptides 100 XM): 0.5 °C
